Assay results published in patent publication US12274726B2, “Enteric aerobization therapy” (LPOXY THERAPEUTICS, INC., priority 2021, dated 2025).

Columns and labels:
[1] = test system: Clostridioides difficile ATCC 43255; details: for cure rate: mouse CDI model, 14 days follow-up; for survival: treatment study day 0 to 4, followed for 14 days after inoculum, 10 mice per group
Text: Because of the more humanlike characteristics for mouse CDI model, it was chosen to evaluate enteric aerobization.
Administration of enteric aerobization therapies presented several challenges with the mouse model. Administration of experimental compounds in rodents is normally performed via gastric gavage using a solution of the test article. However, this could not be accomplished with enteric aerobization therapy because dissolving the mixture prior to administration would result in premature loss of oxygen effervescence before entering the intestine. Further, there is uncertainty that rodents reliably pass enteric coated capsules or tablets from the stomach to the intestine. […] Finally, the small capsule or tablet sizes required for rodent administration severely limits dosages.
Thirty C57BL/6 female mice (18-22 g) fitted with duodenal catheters externalized and fitted with access button ports were purchased from Charles River Laboratories and singly housed in a temperature and humidity-controlled room with a 12-hour light cycle. The mice were divided into 3 groups of 10.
The mice were pretreated with an antibiotic cocktail in their drinking water for 8 consecutive days. This antibiotic cocktail was composed of 1% glucose, 500 mcg/mL kanamycin, 44 mcg/mL gentamicin, 1062.5 units per milliliter colistin, 269 mcg/mL metronidazole, 156 mcg/mL ciprofloxacin, 100 mcg/mL ampicillin, and 56 mcg/mL vancomycin. The antibiotic cocktail and drinking water were replaced every 2 to 3 days. Five days prior to infection the antibiotic water was removed and normal drinking water was provided to the animals. Three days prior to infection the animals received a single dose of clindamycin 10 mg per kilogram via oral administration in a volume of 10 mL per kilogram.
On study Day 0 mice were inoculated with the bacterial suspension of 5×10^5 CFU Clostridioides difficile ATCC 43255 via oral gavage. Eight hours after inoculation administration of vehicle, antibiotic control, and test article was initiated according to the following. The vehicle a.k.a. infection control group of 10 mice received 80 μL per hour 100% pure nitrogen gas via duodenal catheter. The infection control group of 10 mice received 50 mg/kg vancomycin via oral gavage once daily. […] Administration was continued from study day 0 to study day 4, a total of 5 days. The mice were followed for 14 days after inoculum recording daily weights and clinical observations. Animals that appeared severely moribund were euthanized. At the end of the study all animals were humanely euthanized.

[2] = up to maximum bolus tested, 200 microliters every 6 hours (8 mL/kg per bolus; 32 mL/kg/day)
Experimental: In a separate experiment using the above conditions the tolerance of bolus injection of 100% oxygen gas was tested.

Question: With `CN[C@H](CC(C)C)C(=O)N[C@H]1C(=O)N[C@@H](CC(N)=O)C(=O)N[C@H]2C(=O)N[C@H]3C(=O)N[C@H](C(=O)N[C@H](C(=O)O)c4cc(O)cc(O)c4-c4cc3ccc4O)[C@H](O)c3ccc(c(Cl)c3)Oc3cc2cc(c3O[C@@H]2O[C@H](CO)[C@@H](O)[C@H](O)[C@H]2O[C@H]2C[C@](C)(N)[C@H](O)[C@H](C)O2)Oc2ccc(cc2Cl)[C@H]1O` [vancomycin, reference compound] as the compound, how does the cure rate [1] read?
Answer: 30%

Question: And the survival [1]?
Answer: 100%

Question: With `O=O` [EAT, oxygen] as the compound, how does the “adverse effects of bolus injection” value [2] read?
Answer: No adverse effects were observed

Question: What about the “clinical severity (total clinical score) compared to infection control group” value ([1]; FIG. 9) of the same compound?
Answer: mildly ill

Question: And the “animals showing clinical signs of infection/recurrence in the 2nd week after inoculation, after treatment” value ([1]; days 8-14)?
Answer: no recurrent infections

Question: What about the “adverse effects due to gas infusion” value ([1]; efficacy experiments, 3.2 mL/kg/hr, 76.8 mL/kg/day) of the same compound?
Answer: no adverse effects

Question: What about the cure rate [1] of the same compound?
Answer: 100%

Question: What about the survival [1] of the same compound?
Answer: 100%
